Entries after “also recorded” stand apart in the source; their conditions may differ. Like-named read-outs stand apart in the source and are kept apart here.
Tests used:
[1] = Surface tension interaction by visual observation of glass smearing above the water level; assay type: physicochemical
Description: This example sets forth comparisons of the surface tension interactions of the compositions of Example A2-A7. The surface tension interactions of the compositions of various active ingredients mixed with quillaja powder at various fixed ratios were specifically compared with those of the compositions of various active ingredients without quillaja powder. Surface tension interaction is determined by visual observation of glass smearing of active ingredient powders above the water level. • a) Relative surface tension interaction without quillaja powder: (CoQ10(ubiquinone)≥Curcumin)>(Resveratrol≥DIM)>(Quercetin≥Berberine) • b) Relative surface tension interaction with quillaja powder: […]

[2] = Dispersibility / sedimentation of active powder with quillaja powder in DI water (time-dependent trial); assay type: physicochemical; settings: for Relative Dispersibilities without quillaja powder: FIGS. 1-6
Description: This example sets forth compositions and methods for making compositions of one active ingredient with quillaja powder. Each of the compositions is prepared by mixing one active ingredient with quillaja powder at a fixed ratio of about 75:25, about 60:40, about 50:50, about 40:60, or about 25:75. This example also sets forth methods to test the dispersibilities of the resulting compositions.
• 1. Add 5 mL DI water to 15 mL disposable glass test tube • 2. Weight out Active ingredient (back weigh for accuracy) • a. For 100% active ingredient, weigh out close to the target amount, note the weight, then zero the balance (with active ingredient still on it) • b. Add active ingredient to test tube with DI water • c. Place mostly empty powder weight boat back onto scale and record actual weight added • d. For other mixtures of active ingredient and quillaja powder, perform similar but add to new weight boat to mix powders (instead of adding directly to test tube) • 3. Weigh out quillaja powder (back weigh for accuracy) • a. Weigh out close to target amount of quillaja, note the weight, then zero the balance (with quillaja still on it) • b. Add quillaja to mixture weight boat (with active) • c. Place mostly empty quillaja weigh boat back onto scale and record actual weight added • 4. Repeat for all ratios of powder mixtures below (dose-dependent study):
• 5. Mix powders together • 6. Add powder mixture to the test tube with DI water. Vortex for exactly 2 minutes and perform time-dependent study • 7. Let settle for 10 minutes then take picture/note observations such as degree of turbidity, dispersibility, any large solids, etc. • 8. After 30 minutes (total), take picture/note observations • 9. After 2 hours (total), take picture/note observations • 10. After 4 hours (total), take picture/note observations • 11. Take special note of the size of the solid “pellet” that settles out on the bottom • a. Try to measure its size (estimated) by taking the radius/diameter combined with the height
This example sets forth compositions of CoQ10 powder and quillaja powder at fixed ratios of 100:0, about 75:25, about 60:40, about 50:50, about 40:60, and about 25:75 respectively. As used herein in Example A2, CoQ10 powder is ubiquinone powder as CoQ10(ubiquinone) powder. The compositions have been prepared according to experimental procedures in Example 1A. A time-dependent trial of sedimentation rates of the compositions comprising ubiquinone powder and quillaja powder at different ratios in water was conducted at time points of 10 minutes, 30 minutes, 2 hours, and 4 hours are shown in FIG. 1. Regarding the test tubes in each of the pictures of FIG. 1, from right to left, the weight ratios of CoQ10(ubiquinone) powder to quillaja powder are in the order of 100:0, about 75:25, about 60:40, about 50:50, about 40:60, and about 25:75 respectively. […] Increasing extent of turbidity was indicative of the highest dispersibility and solubility.
This example sets forth comparisons of the dispersibilities for compositions of Examples A2-A7, which comprise various active ingredients mixed with quillaja powder at various fixed ratios. After comparing the results shown in FIGS. 1-6, the relative dispersibilities are as following: • a) Relative Dispersibilities without quillaja powder: Quercetin>Berberine>Resveratrol>Curcumin>DIM>CoQ10(ubiquinone) • b) Relative Dispersibilities with quillaja powder at time point of 30 minute or less: Quercetin>(Curcumin=Resveratrol)>(DIM=Berberine)>CoQ10(ubiquinone) • c) Relative Dispersibilities with quillaja powder at time point of 2 hours or more Quercetin>(DIM=Curcumin=Resveratrol)>Berberine>CoQ10(ubiquinone)

[3] = Bioaccessibility of ubiquinol by simulated in vitro digestion; assay type: in vitro ADME; settings: HPLC of filtered supernatant
Description: In some embodiments, methods of increasing the bioaccessibility and/or bioavailability of an active ingredient in a subject are provided. The active ingredient can be any active ingredients, such as, but not limited to, those described herein. In some embodiments, the methods comprise administering to the subject any of the compositions provided for herein. The administration can be by any method, such as those described herein. […] An increase in bioaccessibility can be determined by any suitable method. For example, bioaccessibility can be measured by simulated in vitro digestion. […] Without being bound to any particular method, in some embodiments, bioaccessibility is determined by mixing a sample (a composition) with a saliva solution and, optionally, mucin. […] The samples can then be analyzed by HPLC to determine the increase in bioaccessibility. Bioaccessibility can be calculated by dividing the amount of the at least one active ingredient measured by, for example HPLC, by the theoretical (or actual amount of ubiquinol in the sample)×100 to determine the percent bioaccessibility. […]
This example sets forth to test the effect of quillaja powder on bioaccessiblity of ubiquinol. Bioaccessibility of ubiquinol was measured by simulated in vitro digestion. […] Bioaccessibility (%)=(ubiquinol measured by HPLC/theoretical amount of ubiquinol in the sample)×100%.

[4] = active:quillaja 100:0, DI water, 10 minutes, 30 minutes, 2 hours, 4 hours

Row | Structure (SMILES) | Relative surface tension interaction without quillaja powder [1] | Relative surface tension interaction without quillaja powder ([1]; listed as berberine) | dispersibility and solubility in water, tube without quillaja powder [2, 4] | Relative Dispersibilities with quillaja powder at time point of 30 minute or less [2] | Relative Dispersibilities with quillaja powder at time point of 2 hours or more [2] | Relative Dispersibilities without quillaja powder [2] | dispersibility and solubility in water, tube without quillaja powder [2] | Relative surface tension interaction without quillaja powder ([1]; listed as curcumin) | Relative surface tension interaction without quillaja powder ([1]; listed as quercetin) | bioaccessibility of ubiquinol [3]
1 | COc1ccc2cc3[n+](cc2c1OC)CCc1cc2c(cc1-3)OCO2 [Berberine, berberine] | (CoQ10(ubiquinone)≥Curcumin)>(Resveratrol≥DIM)>(Quercetin≥Berberine) | Lowest surface tension | complete separation | Quercetin>(Curcumin=Resveratrol)>(DIM=Berberine)>CoQ10(ubiquinone) | Quercetin>(DIM=Curcumin=Resveratrol)>Berberine>CoQ10(ubiquinone) | Quercetin>Berberine>Resveratrol>Curcumin>DIM>CoQ10(ubiquinone) | – | – | – | –
2 | COC1=C(OC)C(=O)C(C/C=C(\C)CC/C=C(\C)CC/C=C(\C)CC/C=C(\C)CC/C=C(\C)CC/C=C(\C)CC/C=C(\C)CC/C=C(\C)CC/C=C(\C)CCC=C(C)C)=C(C)C1=O [CoQ10(ubiquinone), ubiquinone] | (CoQ10(ubiquinone)≥Curcumin)>(Resveratrol≥DIM)>(Quercetin≥Berberine); also recorded: Highest surface tension | – | – | Quercetin>(Curcumin=Resveratrol)>(DIM=Berberine)>CoQ10(ubiquinone) | Quercetin>(DIM=Curcumin=Resveratrol)>Berberine>CoQ10(ubiquinone) | Quercetin>Berberine>Resveratrol>Curcumin>DIM>CoQ10(ubiquinone) | complete separation | – | – | –
3 | COc1cc(/C=C/C(=O)CC(=O)/C=C/c2ccc(O)c(OC)c2)ccc1O [Curcumin, curcumin] | (CoQ10(ubiquinone)≥Curcumin)>(Resveratrol≥DIM)>(Quercetin≥Berberine) | – | complete separation | Quercetin>(Curcumin=Resveratrol)>(DIM=Berberine)>CoQ10(ubiquinone) | Quercetin>(DIM=Curcumin=Resveratrol)>Berberine>CoQ10(ubiquinone) | Quercetin>Berberine>Resveratrol>Curcumin>DIM>CoQ10(ubiquinone) | – | Highest surface tension | – | –
4 | O=c1c(O)c(-c2ccc(O)c(O)c2)oc2cc(O)cc(O)c12 [Quercetin, quercetin] | (CoQ10(ubiquinone)≥Curcumin)>(Resveratrol≥DIM)>(Quercetin≥Berberine) | – | – | Quercetin>(Curcumin=Resveratrol)>(DIM=Berberine)>CoQ10(ubiquinone) | Quercetin>(DIM=Curcumin=Resveratrol)>Berberine>CoQ10(ubiquinone) | Quercetin>Berberine>Resveratrol>Curcumin>DIM>CoQ10(ubiquinone) | complete separation | – | Lowest surface tension | –
5 | Oc1ccc(C=Cc2cc(O)cc(O)c2)cc1 [Resveratrol, resveratrol] | (CoQ10(ubiquinone)≥Curcumin)>(Resveratrol≥DIM)>(Quercetin≥Berberine) | – | complete separation | Quercetin>(Curcumin=Resveratrol)>(DIM=Berberine)>CoQ10(ubiquinone) | Quercetin>(DIM=Curcumin=Resveratrol)>Berberine>CoQ10(ubiquinone) | Quercetin>Berberine>Resveratrol>Curcumin>DIM>CoQ10(ubiquinone) | – | – | – | –
6 | COc1c(O)c(C)c(C/C=C(\C)CC/C=C(\C)CC/C=C(\C)CC/C=C(\C)CC/C=C(\C)CC/C=C(\C)CC/C=C(\C)CC/C=C(\C)CC/C=C(\C)CCC=C(C)C)c(O)c1OC [sample A, ubiquinol] | – | – | – | – | – | – | – | – | – | 0.88%
